Measured values from patent US11091478B2 (Fochon Pharmaceuticals, Ltd., priority 2017, dated 2021).
Read-outs that look alike come from different tables or passages of the source.

Assays:
DOHH2 cells = experiment: Cell proliferation assay (MTS), DOHH2 cells, 120 h; type: cell-based
How it was run: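 RS4;11 and DOHH2 cells at 5000 cells/well in RPMI-1640 with 10% FBS were treated with compound at 1.5–10000 nM final, nine points, at 37 °C, 5% CO2. Exposure was 72 h for RS4;11 and 120 h for DOHH2. MTS was added for 2 h, absorbance read at 490/650 nm, and IC50 calculated.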

RS4;11 cells = experiment: Cell proliferation assay (MTS), RS4;11 cells, 72 h; type: cell-based
Text: Cell Proliferation Assays
MTS testing kit was purchased from Promega. The RPMI-1640, Fetal bovine serum and Penicillin-Streptomycin were purchased from Gibco. Dimethyl sulfoxide (DMSO) was purchased from Sigma.
To investigate whether a compound is able to inhibit the activity of BCL-2 in cells, a mechanism-based assay using DOHH2 (DSMZ No.® ACC 47) and RS4;11 (ATCC® CRL-1873™) cell was developed. In this assay, inhibition of Bcl-2 was detected by the inhibition of DOHH2 cells proliferation. DOHH2 cells were cultured in culture flasks to 40-80% confluence in RPMI-1640 plus 10% fetal bovine serum. Cells were collected and plated onto 96-well plates at desired cell density (5000 cells/well). Plates were incubated overnight at 37° C., with 5% CO2 to adhere. Compounds were added to the plates, and the final compound concentrations were 10000, 3333, 1111, […], 124, 41, 14, 4.6 and 1.5 nM. Plates plated with DOHH2 or RS4;11 cells were placed at 37° C., with 5% CO2 for 120 h (DOHH2) or 72 h (RS4;11) respectively. 20 μl MTS/100 μl medium mixture solution were added to each well and incubate the plates for exactly 2 hours. The reaction was stopped by adding 25 μl 10% SDS per well. Measure absorbance at 490 nm and 650 nm (reference wavelength). IC50 was calculated using GraphPad Prism 5.0.
Select compounds prepared as described above were assayed according to the biological procedures described herein.

IC50 (RS4;11 cells; Homo sapiens, RS4-11, 72 h) | Structure (SMILES) | IC50 (DOHH2 cells; Homo sapiens, DOHH-2, 120 h) | IC50 (DOHH2 cells) | also measured
 | CC1(C)CCC(CN2CCN(c3ccc(C(=O)NS(=O)(=O)c4cc5c(c([N+](=O)[O-])c4)N[C@H](C4CCC(C)(O)CC4)CO5)c(Oc4cnc5[nH]ccc5c4)c3)CC2)=C(c2ccc(Cl)cc2)C1 (single isomer, unassigned) [Example 2-3B] |  |  | IC50 (DOHH2 cells; Homo sapiens, DOHH-2): 33 nM; IC50 (RS4;11 cells; Homo sapiens): 8 nM
1 nM | CC1(C)CCC(CN2CCN(c3ccc(C(=O)NS(=O)(=O)c4cc5c(c([N+](=O)[O-])c4)N[C@H](CC4CCC(O)CC4)CO5)c(Oc4cnc5[nH]ccc5c4)c3)CC2)=C(c2ccc(Cl)cc2)C1 (single isomer, unassigned) [Example 2-239A] |  | 5 nM | 
 | CC1(C)CCC(CN2CCN(c3ccc(C(=O)NS(=O)(=O)c4cc5c(c([N+](=O)[O-])c4)N[C@H](CC4CCC(O)CC4)CO5)c(Oc4cnc5[nH]ccc5c4)c3)CC2)=C(c2ccc(Cl)cc2)C1 (single isomer, unassigned) [Example 2-239B] |  | 1 nM | IC50 (RS4;11 cells): 1 nM
1 nM | CC1(C)CCC(CN2CCN(c3ccc(C(=O)NS(=O)(=O)c4cc5c(c([N+](=O)[O-])c4)N[C@H](C4CCC(O)CC4)CO5)c(Oc4cnc5[nH]ccc5c4)c3)CC2)=C(c2ccc(Cl)cc2)C1 (single isomer, unassigned) [Example 2-240A] |  | 5 nM | 
 | CC1(C)CCC(CN2CCN(c3ccc(C(=O)NS(=O)(=O)c4cc5c(c([N+](=O)[O-])c4)N[C@H](C4CCC(O)CC4)CO5)c(Oc4cnc5[nH]ccc5c4)c3)CC2)=C(c2ccc(Cl)cc2)C1 (single isomer, unassigned) [Example 2-240B] |  | 1 nM | IC50 (RS4;11 cells): 1 nM
3 nM | CC1(C)CCC(CN2CCN(c3ccc(C(=O)NS(=O)(=O)c4cc5c(c([N+](=O)[O-])c4)N[C@@H](CC4CCC(O)CC4)CO5)c(Oc4cnc5[nH]ccc5c4)c3)CC2)=C(c2ccc(Cl)cc2)C1 (single isomer, unassigned) [Example 2-244A] |  | 7 nM | 
 | CC1(C)CCC(CN2CCN(c3ccc(C(=O)NS(=O)(=O)c4cc5c(c([N+](=O)[O-])c4)N[C@@H](CC4CCC(O)CC4)CO5)c(Oc4cnc5[nH]ccc5c4)c3)CC2)=C(c2ccc(Cl)cc2)C1 (single isomer, unassigned) [Example 2-244B] |  | 1 nM | IC50 (RS4;11 cells): 3 nM
48 nM | CC1(C)CCC(CN2CCN(c3ccc(C(=O)NS(=O)(=O)c4cc5c(c([N+](=O)[O-])c4)N[C@H](CN4CCOCC4)C5)c(Oc4cnc5[nH]ccc5c4)c3)CC2)=C(c2ccc(Cl)cc2)C1 [Example 1-1, (S)-2-((1H-pyrrolo[2,3-b]pyridin-5-yl)oxy)-4-(4-((4′-chloro-5,5-dimethyl-3,4,5,6-tetrahydro-[1,1′-biphenyl]-2-yl)methyl)piperazin-1-yl)-N-((2-(morpholinomethyl)-7-nitroindolin-5-yl)sulfonyl)benzamide] | 80 nM |  | 
 | CC1(C)CCC(CN2CCN(c3ccc(C(=O)NS(=O)(=O)c4cc5c(c([N+](=O)[O-])c4)O[C@H](c4ccc(Cl)cn4)CN5)c(Oc4cnc5[nH]ccc5c4)c3)CC2)=C(c2ccc(Cl)cc2)C1 [Example 2-218, (S)-2-((1H-pyrrolo[2,3-b]pyridin-5-yl)oxy)-4-(4-((4′-chloro-5,5-dimethyl-3,4,5,6-tetra-hydro-[1,1′-biphenyl]-2-yl)methyl)piperazin-1-yl)-N-((2-(5-chloropyridin-2-yl)-8-nitro-3,4-dihdyro-2H-benzo[b][1,4]oxazin-6-yl)sulfonyl)benzamide] | 507 nM |  | 
 | CC1(C)CCC(CN2CCN(c3ccc(C(=O)NS(=O)(=O)c4cc5c(c([N+](=O)[O-])c4)N[C@H](CC4CCC(C)(O)CC4)CO5)c(Oc4cnc5[nH]ccc5c4)c3)CC2)=C(c2ccc(Cl)cc2)C1 (stereo partly drawn) [Example 2-219, (R)-2-((1H-pyrrolo[2,3-b]pyridin-5-yl)oxy)-4-(4-((4′-chloro-5,5-dimethyl-3,4,5,6-tetra-hydro-[1,1′-biphenyl]-2-yl)methyl)piperazin-1-yl)-N-((3-((4-hydroxy-4-methylcyclo-hexyl)methyl)-5-nitro-3,4-dihydro-2H-benzo [b][1,4]oxazin-7-yl)sulfonyl)benzamide] | 662 nM |  | 
 | CC1(C)CCC(CN2CCN(c3ccc(C(=O)NS(=O)(=O)c4cc5c(c([N+](=O)[O-])c4)N[C@@H](C4CCNCC4)CO5)c(Oc4cnc5[nH]ccc5c4)c3)CC2)=C(c2ccc(Cl)cc2)C1 [Example 2-228, (S)-2-((1H-pyrrolo[2,3-b]pyridin-5-yl)oxy)-4-(4-((4′-chloro-5,5-dimethyl-3,4,5,6-tetra-hydro-[1,1′-biphenyl]-2-yl)methyl)piperazin-1-yl)-N-((5-nitro-3-(piperidin-4-yl)-3,4-dihydro-2H-benzo[b][1,4]oxazin-7-yl)sulfonyl)benzamide] | 48 nM |  | 
 | CC1(C)CCC(CN2CCN(c3ccc(C(=O)NS(=O)(=O)c4cc5c(c([N+](=O)[O-])c4)N[C@@H](C4CCC(O)CC4)CO5)c(Oc4cnc5[nH]ccc5c4)c3)CC2)=C(c2ccc(Cl)cc2)C1 (stereo partly drawn) [Example 2-245B, (S)-2-((1H-pyrrolo[2,3-b]pyridin-5-yl)oxy)-4-(4-((4′-chloro-5,5-dimethyl-3,4,5,6-tetra-hydro-[1,1′-biphenyl]-2-yl)methyl)piperazin-1-yl)-N-((3-(4-hydroxycyclohexyl)-5-nitro-3,4-dihydro-2H-benzo[b][1,4]oxazin-7-yl)sulfonyl)benzamide] |  | 1 nM | 
 | CN1CCN(CC[C@@H]2CNc3cc(S(=O)(=O)NC(=O)c4ccc(N5CCN(CC6=C(c7ccc(Cl)cc7)CC(C)(C)CC6)CC5)cc4Oc4cnc5[nH]ccc5c4)cc([N+](=O)[O-])c3N2)CC1 [Example 4-5, (R)-2-((1H-pyrrolo[2,3-b]pyridin-5-yl)oxy)-4-(4-((4′-chloro-5,5-dimethyl-3,4,5,6-tetra-hydro-[1,1′-biphenyl]-2-yl)methyl)piperazin-1-yl)-N-((2-(2-(4-methylpiperazin-1-yl)ethyl)-8-nitro-1,2,3,4-tetrahydroquinoxalin-6-yl)sulfonyl)benzamide] | 232 nM |  | 
 | CC1(C)CCC(CN2CCN(c3ccc(C(=O)NS(=O)(=O)c4cc5c(c([N+](=O)[O-])c4)N[C@@H](C4CC4)CO5)c(-n4ncc5nc6[nH]ccc6cc54)c3)CC2)=C(c2ccc(Cl)cc2)C1 [Example 6-2, (S)-4-(4-((4′-chloro-5,5-dimethyl-3,4,5,6-tetrahydro-[1,1′-biphenyl]-2-yl)methyl)piperazin-1-yl)-N-((3-cyclopropyl-5-nitro-3,4-dihydro-2H-benzo[b][1,4]oxazin-7-yl)sulfonyl)-2-(pyrazolo[4,3-b]pyrrolo[3,2-e]pyridin-1(5H)-yl)benzamide] | 264 nM |  | 
 | CC1(C)CCC(CN2CCN(c3ccc(C(=O)NS(=O)(=O)c4cc5c(c([N+](=O)[O-])c4)N[C@@H](Cc4ccccn4)CO5)c(-n4ncc5nc6[nH]ccc6cc54)c3)CC2)=C(c2ccc(Cl)cc2)C1 [Example 6-3, (S)-4-(4-((4′-chloro-5,5-dimethyl-3,4,5,6-tetrahydro-[1,1′-biphenyl]-2-yl)methyl)piperazin-1-yl)-N-((5-nitro-3-(pyridin-2-ylmethyl)-3,4-dihydro-2H-benzo[b][1,4]oxazin-7-yl)sulfonyl)-2-(pyrazolo[4,3-b]pyrrolo[3,2-e]pyridin-1(5H)-yl)benzamide] | 185 nM |  | 

Structure (SMILES) | IC50 (RS4;11 cells; Homo sapiens, RS4-11, 72 h) | IC50 (DOHH2 cells; Homo sapiens, DOHH-2, 120 h) | IC50 (DOHH2 cells) | also measured
CC1(C)CCC(CN2CCN(c3ccc(C(=O)NS(=O)(=O)c4cc5c(c([N+](=O)[O-])c4)N[C@H](C4CCC(C)(O)CC4)CO5)c(Oc4cnc5[nH]ccc5c4)c3)CC2)=C(c2ccc(Cl)cc2)C1 (single isomer, unassigned) [Example 2-3A] | 1 nM | 16 nM |  | 
